We go through 16 compounds from patent US20230081426A1, “COMPOUNDS AND METHODS FOR KRAS MODULATION AND INDICATIONS THEREFOR” (Plexxikon Inc., priority 2020, published 2023).

What is called IC50 is the concentration that inhibits the measured activity by half.

The target in experiment [1] is T1, G12V-mutant human KRAS (amino acid residues 1-188) (Homo sapiens, UniProt P01116, G12V).
T1 construct: G12V-mutant human KRAS (amino acid residues 1-188) with FLAG tag was purified from E. coli; made in house; host or cells: E. coli
In words: KRAS Binding Competition Assay (AlphaScreen; biotinylated KRpep-2d analogue), G12V. The conditions noted are these: geometric mean, read-out: KRAS GMean IC50 (uM) MUTATION: G12V. On the technique in general: In Alpha technology, singlet oxygen from a donor bead excites a nearby acceptor bead.

Experiment [2] deals with T2, G12D-mutant human KRAS (amino acid residues 1-188) (Homo sapiens, UniProt P01116, G12D).
T2 construct: G12D or G12C-mutant human KRAS (amino acid residues 1-188) with FLAG tag; made in house; host or cells: E. coli
Kind of experiment: KRAS Binding Disruption Assay (AlphaScreen; biotinylated KRpep-2d analogue or RAF1-RBD), G12D. The conditions noted are these: KRAS G12D; geometric mean; read-out: KRAS GMean IC50 (uM) MUTATION: G12D. Summed up: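 Displacement format with mutant KRAS, biotinylated KRpep-2d analogue or RAF1-RBD (5-20 nM each) at pH 7.5 with 5 mM MgCl2.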

`CN1CCC[C@H]1COc1nc(N2CC3COCC(C2)N3)c2cc(Cl)c(-c3cc(O)cc4ccccc34)c(F)c2n1` [P-0357, 4-(4-(3-oxa-7,9-diazabicyclo[3.3.1]nonan-7-yl)-6-chloro-8-fluoro-2-(((S)-1-methylpyrrolidin-2-yl)methoxy)quinazolin-7-yl)naphthalen-2-ol]: the IC50 in experiment [1] and in experiment [2] was 0.0001 to 10 µM throughout.

As for `CN1CCC[C@H]1COc1nc(N2CC3COCC(C2)N3C(=O)CC2SC(=O)NC2=O)c2cc(Cl)c(-c3cc(O)cc4ccccc34)c(F)c2n1` (stereo partly drawn) [P-0358, 5-(2-(7-(6-chloro-8-fluoro-7-(3-hydroxynaphthalen-1-yl)-2-(((S)-1-methylpyrrolidin-2-yl)methoxy)quinazolin-4-yl)-3-oxa-7,9-diazabicyclo[3.3.1]nonan-9-yl)-2-oxoethyl)thiazolidine-2,4-dione], the 50% inhibitory concentration (IC50) in experiment [1] and in experiment [2] was 0.0001 to 10 µM in each case.

Regarding `Cc1cccc2c1N(c1ccc3c(N4C[C@H]5CC[C@@H](C4)N5)nc(OC[C@@H]4CCCN4C)nc3c1F)CC(O)C2` (stereo partly drawn) [P-0360, 1-(4-((1R,5S)-3,8-diazabicyclo[3.2.1]octan-3-yl)-8-fluoro-2-(((S)-1-methylpyrrolidin-2-yl)methoxy)quinazolin-7-yl)-8-methyl-1,2,3,4-tetrahydroquinolin-3-ol], the IC50 in experiment [1] was 10 to 100 µM; in experiment [2], 0.0001 to 10 µM.

For `CN(C)c1ccc(Oc2nc(N3C[C@H]4CC[C@@H](C3)N4)c3cc(Cl)c(-c4c(O)cccc4F)c(F)c3n2)cc1` [P-0361, 2-(4-((1R,5S)-3,8-diazabicyclo[3.2.1]octan-3-yl)-6-chloro-2-(4-(dimethylamino)phenoxy)-8-fluoroquinazolin-7-yl)-3-fluorophenol], the half-inhibitory concentration (IC50) in experiment [1] and in experiment [2] was 0.0001 to 10 µM throughout.

As for `CN(C)c1cccc(/C=C/c2nc(N3C[C@H]4CC[C@@H](C3)N4)c3cc(Cl)c(-c4c(O)cccc4F)c(F)c3n2)c1` [P-0362, 2-(4-((1R,5S)-3,8-diazabicyclo[3.2.1]octan-3-yl)-6-chloro-2-((E)-3-(dimethylamino)styryl)-8-fluoroquinazolin-7-yl)-3-fluorophenol], the IC50 in experiment [1] and in experiment [2] was 0.0001 to 10 µM throughout.

In the case of `CN(C)c1cccc(CCc2nc(N3C[C@H]4CC[C@@H](C3)N4)c3cc(Cl)c(-c4c(O)cccc4F)c(F)c3n2)c1` [P-0363, 2-(4-((1R,5S)-3,8-diazabicyclo[3.2.1]octan-3-yl)-6-chloro-2-(3-(dimethylamino)phenethyl)-8-fluoroquinazolin-7-yl)-3-fluorophenol], the concentration for half-maximal inhibition (IC50) in experiment [1] and in experiment [2] was 0.0001 to 10 µM in each case.

In the case of `CN(C)c1cccc(COc2nc(N3C[C@H]4CC[C@@H](C3)N4)c3cc(Cl)c(-c4c(O)cccc4F)c(F)c3n2)c1` [P-0364, 2-(4-((1R,5S)-3,8-diazabicyclo[3.2.1]octan-3-yl)-6-chloro-2-((3-(dimethylamino)benzyl)oxy)-8-fluoroquinazolin-7-yl)-3-fluorophenol], the half-inhibitory concentration (IC50) in experiment [1] and in experiment [2] was 0.0001 to 10 µM in each case.

As to `CN1CCC[C@H]1COc1nc(N2C[C@H]3CC[C@@H](C2)N3C(=O)CC#N)c2ccc(-c3cc(O)cc4ccccc34)cc2n1` [P-0368, 3-((1R,5S)-3-(7-(3-hydroxynaphthalen-1-yl)-2-(((S)-1-methylpyrrolidin-2-yl)methoxy)quinazolin-4-yl)-3,8-diazabicyclo[3.2.1]octan-8-yl)-3-oxopropanenitrile], the IC50 in experiment [1] and in experiment [2] was 0.0001 to 10 µM in each case.

As to `CN1C(=O)C(CC(=O)N2[C@@H]3CC[C@H]2CN(c2nc(OC[C@@H]4CCCN4C)nc4cc(-c5cc(O)cc6ccccc56)ccc24)C3)N(C)C1=O` (stereo partly drawn) [P-0369, 5-(2-((1R,5S)-3-(7-(3-hydroxynaphthalen-1-yl)-2-(((S)-1-methylpyrrolidin-2-yl)methoxy)quinazolin-4-yl)-3,8-diazabicyclo[3.2.1]octan-8-yl)-2-oxoethyl)-1,3-dimethylimidazolidine-2,4-dione], the values for the IC50 in experiment [1] and in experiment [2] were 10 to 100 µM and 0.0001 to 10 µM, respectively.

Consider `CN1CCC[C@H]1COc1nc(N2C[C@H]3CC[C@@H](C2)N3C(=O)CC2SC(N)=NC2=O)c2ccc(-c3cc(O)cc4ccccc34)cc2n1` (stereo partly drawn) [P-0370, 2-amino-5-(2-((1R,5S)-3-(7-(3-hydroxynaphthalen-1-yl)-2-(((S)-1-methylpyrrolidin-2-yl)methoxy)quinazolin-4-yl)-3,8-diazabicyclo[3.2.1]octan-8-yl)-2-oxoethyl)thiazol-4(5H)-one], for which the IC50 in experiment [1] and in experiment [2] was 0.0001 to 10 µM in each case.

In the case of `CN1CCC[C@H]1COc1nc(N2C[C@H]3CC[C@@H](C2)N3C(=O)CC2CCNC2=O)c2ccc(-c3cc(O)cc4ccccc34)cc2n1` (stereo partly drawn) [P-0371, 3-(2-((1R,5S)-3-(7-(3-hydroxynaphthalen-1-yl)-2-(((S)-1-methylpyrrolidin-2-yl)methoxy)quinazolin-4-yl)-3,8-diazabicyclo[3.2.1]octan-8-yl)-2-oxoethyl)pyrrolidin-2-one], the 50% inhibitory concentration (IC50) in experiment [1] and in experiment [2] was 10 to 100 µM each time.

In the case of `Fc1cc2c(N3C[C@H]4CC[C@@H](C3)N4)nc(OCC34CCCN3CCC4)nc2c(F)c1-c1c[nH]c2ccccc12` [P-0372, 4-((1R,5S)-3,8-diazabicyclo[3.2.1]octan-3-yl)-6,8-difluoro-7-(1H-indol-3-yl)-2-((tetrahydro-1H-pyrrolizin-7a(5H)-yl)methoxy)quinazoline], the half-maximal inhibitory concentration (IC50) fell in the range of 10 to 100 µM in experiment [1] and 0.0001 to 10 µM in experiment [2].

For the compound `Fc1cc2c(N3C[C@H]4CC[C@@H](C3)N4)nc(OCC34CCCN3CCC4)nc2c(F)c1-c1c[nH]c2ccc(Cl)cc12` [P-0373, 4-((1R,5S)-3,8-diazabicyclo[3.2.1]octan-3-yl)-7-(5-chloro-1H-indol-3-yl)-6,8-difluoro-2-((tetrahydro-1H-pyrrolizin-7a(5H)-yl)methoxy)quinazoline], the values for the IC50 in experiment [1] and in experiment [2] were 10 to 100 µM and 0.0001 to 10 µM, respectively.

With `O=C(Cc1c[nH]c(=O)[nH]c1=O)N1[C@@H]2CC[C@H]1CN(c1nc(OCC34CCCN3CCC4)nc3c(F)c(-c4cc(O)cc5ccccc45)ccc13)C2` [P-0374, 5-(2-((1R,5S)-3-(8-fluoro-7-(3-hydroxynaphthalen-1-yl)-2-((tetrahydro-1H-pyrrolizin-7a(5H)-yl)methoxy)quinazolin-4-yl)-3,8-diazabicyclo[3.2.1]octan-8-yl)-2-oxoethyl)pyrimidine-2,4(1H,3H)-dione], the half-inhibitory concentration (IC50) in experiment [1] and in experiment [2] was 0.0001 to 10 µM throughout.

In the case of `CN1CC[C@@H](NS(=O)(=O)N2[C@@H]3CC[C@H]2CN(c2nc(OC[C@@H]4CCCN4C)nc4c(F)c(-c5cc(O)cc6ccccc56)ccc24)C3)C1` [P-0376, (1R,5S)-3-(8-fluoro-7-(3-hydroxynaphthalen-1-yl)-2-(((S)-1-methylpyrrolidin-2-yl)methoxy)quinazolin-4-yl)-N-((R)-1-methylpyrrolidin-3-yl)-3,8-diazabicyclo[3.2.1]octane-8-sulfonamide], the 50% inhibitory concentration (IC50) in experiment [1] and in experiment [2] was 0.0001 to 10 µM in each case.

On to `CN1CCC[C@H]1COc1nc(N2C[C@H]3CC[C@@H](C2)N3S(=O)(=O)N2CCOC2=O)c2ccc(-c3cc(O)cc4ccccc34)c(F)c2n1` [P-0377, 3-(((1R,5S)-3-(8-fluoro-7-(3-hydroxynaphthalen-1-yl)-2-(((S)-1-methylpyrrolidin-2-yl)methoxy)quinazolin-4-yl)-3,8-diazabicyclo[3.2.1]octan-8-yl)sulfonyl)oxazolidin-2-one], for which the IC50 in experiment [1] and in experiment [2] was 0.0001 to 10 µM throughout.
